Source: patent US20210128654A1, “COMPOSITION FOR TREATING, PREVENTING, OR IMPROVING MALE INFERTILITY” (Mugen General Incorporated Association, priority 2018, published 2021)

Legend:
Format in all cases: in vivo
[1] = tested on: male testis-specific non-mitochondrial GPx4 knockout mouse; assay: Mating test of male infertility model mouse (number of pregnancies and child mice); conditions: "VE high-content feed": vitamin E 100 mg + CE-2 feed 100 g, mating period 3 months
From the text: In this Example, as a male infertility model mouse, a male testis-specific non-mitochondrial GPx4 knockout mouse was used (see, Non Patent Literature 2). The testis-specific non-mitochondrial GPx4 knockout mouse is a mouse deficient in non-mitochondrial phospholipid hydroperoxide glutathione peroxidase (cGPx4) in the testis and has the phenotypes listed in the following Table 1.
(§1) A single 3 weeks-old male testis-specific non-mitochondrial GPx4 knockout mouse was assigned to each of the four groups shown in Table 2 (below) and separately raised (singly per cage) up to 8 weeks-old. To a normal control group, mouse breeding feed CE-2 (CLEA Rodent Diet CE-2; a product manufactured by CLEA Japan, Inc.) was fed during the test period. As a positive control substance, vitamin E (Non Patent Literature 1), which is used in treatment for male infertility, was selected and a mixture of feed CE-2 and vitamin E was fed to a positive control substance administration group during the test period. The ratio of vitamin E in the mixture was 100 mg relative to 100 g of feed CE-2. To the test groups, a mixture of feed CE-2 and koji mold fermentation product obtained in Example 1 was fed during the test period. For a low dose group, a feed having a content of koji mold fermentation product of 0.5 wt % was used. For a high dose group, a feed having a content of koji mold fermentation product of 5.0 wt % was used. Feed CE-2 and feed CE-2 mixed with the positive control substance or a koji mold fermentation product were free to take and water was free to drink from a water-supply bottle. In the aforementioned conditions, mice were raised from 3 weeks-old to 8 weeks-old.
When male testis-specific non-mitochondrial GPx4 knockout mice grew up to be crossable (8 weeks-old) mice, three of 7 weeks-old BALB/c female mice were assigned to each cage and crossed with a single male testis-specific non-mitochondrial GPx4 knockout mouse. The mating period was 3 months. […]

[2] = tested on: male testis-specific non-mitochondrial GPx4 knockout mouse; assay: Abnormal sperm ratio and sperm-tail fold angle by microscopy; conditions: "VE high-content feed": vitamin E 100 mg + CE-2 feed 100 g; FIG. 4
From the text: as §1, with “For a high dose group, a feed having a content of koji mold fermentation product of 5.0 wt % was used. Feed CE-2 and feed CE-2 mixed with the positive control substance or a koji mold fermentation product were free to take and water was free to drink from a water-supply bottle. In the aforementioned conditions, mice were raised from 3 weeks-old to 8 weeks-old.” left out
In a testis-specific non-mitochondrial GPx4 knockout mouse, a half or more of the sperms have an abnormal structure (a sperm tail is folded to form a hair-pin structure); in other words, abnormal sperm morphology. […] The sperms in a plurality of fields of view under the microscope were photographed, and the numbers of normal sperms and abnormal sperms in the photographs were counted, and then, an average ratio of abnormal sperms was calculated.

[3] = tested on: male testis-specific non-mitochondrial GPx4 knockout mouse; assay: Testis tissue observation (hematoxylin eosin), removal of spermatocytes; conditions: "VE high-content feed": vitamin E 100 mg + CE-2 feed 100 g; FIG. 6
From the text: A single 3 weeks-old male testis-specific non-mitochondrial GPx4 knockout mouse was assigned to each of the four groups shown in Table 2 (below) and separately raised (singly per cage) up to 8 weeks-old. To a normal control group, mouse breeding feed CE-2 (CLEA Rodent Diet CE-2; a product manufactured by CLEA Japan, Inc.) was fed during the test period. As a positive control substance, vitamin E (Non Patent Literature 1), which is used in treatment for male infertility, was selected and a mixture of feed CE-2 and vitamin E was fed to a positive control substance administration group during the test period. The ratio of vitamin E in the mixture was 100 mg relative to 100 g of feed CE-2. To the test groups, a mixture of feed CE-2 and koji mold fermentation product obtained in Example 1 was fed during the test period. For a low dose group, a feed having a content of koji mold fermentation product of 0.5 wt % was used. For a high dose group, a feed having a content of koji mold fermentation product of 5.0 wt % was used. Feed CE-2 and feed CE-2 mixed with the positive control substance or a koji mold fermentation product were free to take and water was free to drink from a water-supply bottle. In the aforementioned conditions, mice were raised from 3 weeks-old to 8 weeks-old. […]

vitamin E
total number of child mice ([1]; 3 females, FIG. 2b): 60
number of child mice per delivery of the female mice ([1]; FIG. 2c): 7
total number of pregnancies of three female mice ([1]; single male x 3 BALB/c females, FIG. 2a): 8
significantly low ratio of abnormal sperms [2]: not observed
removal of the spermatocytes in testis tissue [3]: improved
